Assay results: publication PMC8151276, “An Integrated Approach toward NanoBRET Tracers for Analysis of GPCR Ligand Engagement” (Molecules, 2021)

Target: T1, AVPR1A (Homo sapiens, UniProt P37288)
T1 construct: purchased Promega (in-house HiBiT-GPCR construct library, NanoBRET)
Assay: NanoBRET screen HiBiT-AVPR1A in HEK293
Format: binding
Method: Each tracer candidate was screened across the entire library of HiBiT-GPCR constructs using NanoBRET as the detection modality. As depicted in Figure 4A, the specificity of interactions was evaluated through decrease in BRET due to competitive displacement of a bound tracer by excess parental compound. Each tracer was analyzed for binding to each HiBiT-GPCR fusion in the absence and in the presence of competing parental compound. Briefly, HEK293 cells were transfected with HiBiT-GPCR constructs diluted into promoterless DNA to reduce expression and maximize translocation to the cell surface. Each tracer candidate was then screened at concentrations of 1 μM and 0.1 μM across cells expressing these fusions. Cells were treated for 1.5 h with tracer either alone or in the presence of 20 μM competing parental compound (i.e., control). BRET was measured upon addition of purified LgBiT and subsequent complementation with HiBiT genetically fused to a GPCR. The specificity of interactions was assessed through a decrease in BRET signal due to competitive displacement of the bound tracer. To further gauge the robustness of these interactions, the fold response over the control (i.e., BRETtracer/BRETcontrol) was calculated. We chose a 1.5-fold response, which translates to ≥7-fold signal over noise as the minimal threshold required to score an interaction as positive.
HiBiT-GPCR DNA constructs were diluted in 10 mM Tris pH 8 to a final concentration of 0.01 μg/μL, arrayed in 96-well plates and stored at −20 °C. For transfection, HEK293 cells were suspended in Opti-MEM (without phenol red) supplemented with 2% fetal bovine serum (Seradigm) and 100 units/mL penicillin–streptomycin (Gibco) at a final concentration of 220,000 cells/mL and dispensed into white 96-well plates at 90 μL/well. Subsequent transfections and screens were carried using an Agilent Bravo Automated Liquid Handling Platform. First, the 96-well HiBiT DNA arrays were diluted 25-fold in Opti-MEM (without serum or phenol red) to a final concentration of 0.0004 μg/μL and 20 μL of the diluted DNAs were transferred into new 96-well plates. Next, promoterless carrier DNA (1 μg/μL) was diluted 25-fold (0.04 μg/μL) and then dispensed into the diluted arrays at 20 μL/well. Following brief mixing, Viafect transfection reagent (Promega) diluted 16-fold into Opti-MEM was dispensed into the plates at 40 μL/well. After mixing by pipetting, plates were incubated for 10 min on the pipetting station deck. The DNA-transfection reagent complexes were then added to plates containing cells. To facilitate the screen, 10 μL of DNA-transfection reagent complexes were added in duplicates to the top 4 and bottom 4 rows, resulting in two identical 48-well arrays per plate. Plates with transfected cells were incubated for 18–20 h at 37 °C/5% CO2. A screen of each tracer across the entire library using two different concentrations requires duplicate plates of transfected cells. Depending on the number of tracers being screened, transfections can be scaled up using the same ratios. The next day, for each tracer, four 20× screening solutions in tracer dilution buffer (Promega) were prepared: two duplicates at final concentration of 20 μM and two duplicates at a final concentration of 2 μM. […] The four resulting solutions were diluted 4-fold in Opti-MEM without serum or phenol red to generate 5× solutions (5 µM and 0.5 µM tracer +/− 100 μM competing compound). To screen the library, a BioTek MultiFlo FX liquid dispenser was used to dispense 22.5 µL of tracer solution to the top 4 rows and 22.5 µL tracer + competing compound solution to the 4 bottom rows. Plates were briefly mixed on an orbital shaker and incubated for 1.5 h at room temperature. […] Plates were briefly mixed on an orbital shaker and incubated for 15 min to allow complementation.

T1 sequence (P37288 whole entry): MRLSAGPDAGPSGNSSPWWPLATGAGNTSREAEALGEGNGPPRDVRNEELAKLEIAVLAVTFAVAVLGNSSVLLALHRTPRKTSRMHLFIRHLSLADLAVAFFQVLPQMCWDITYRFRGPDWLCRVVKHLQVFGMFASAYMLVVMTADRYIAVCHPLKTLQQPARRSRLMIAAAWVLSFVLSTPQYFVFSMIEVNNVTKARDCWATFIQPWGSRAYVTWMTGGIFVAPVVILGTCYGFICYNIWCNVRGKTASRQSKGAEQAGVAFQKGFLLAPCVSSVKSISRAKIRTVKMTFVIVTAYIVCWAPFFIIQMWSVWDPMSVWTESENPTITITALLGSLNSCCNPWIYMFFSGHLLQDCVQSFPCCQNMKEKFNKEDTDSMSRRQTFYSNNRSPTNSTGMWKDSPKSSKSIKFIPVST

| SMILES | NanoBRET Fold Response (AVPR1A, tracer 0.1μM) | NanoBRET Fold Response (AVPR1A, tracer 1μM) | other results |
| --- | --- | --- | --- |
| O=C(CCc1ccc2n1[B-](F)(F)[N+]1=C(c3ccc[nH]3)C=CC1=C2)NCc1ccc(C(=O)NCCOCCC(=O)N[C@@H]2CC[C@@]3(O)[C@H]4Cc5ccc(O)c6c5[C@@]3(CCN4CC3CC3)[C@H]2O6)cc1 [Naltrexone-3-NB590] | 1.34 | 0.76 |  |
| CCCn1c(=O)c2[nH]c(-c3ccc(OCC(=O)NCCNC(=O)CCOCCNC(=O)c4ccc(CNC(=O)CCc5ccc6n5[B-](F)(F)[N+]5=C(c7ccc[nH]7)C=CC5=C6)cc4)cc3)nc2n(CCC)c1=O [XAC-3-NB590] | 1.25 | 1.36 |  |
| CC(C)N(CC[C@H](c1ccccc1)c1cc(CCNC(=O)c2ccc(CNC(=O)CCc3ccc4n3[B-](F)(F)[N+]3=C(c5ccc[nH]5)C=CC3=C4)cc2)ccc1O)C(C)C [Tolterodine-BZ-NB590] | 1.15 | 1.07 |  |
| COc1ccc2[nH]c(-c3ccc(CNC(=O)CCOCCOCCOCCOCCNC(=O)CCc4ccc5n4[B-](F)(F)[N+]4=C(c6ccc[nH]6)C=CC4=C5)cc3)c(CCNC(C)=O)c2n1 [AzomelatoninICO9-2-NB590] |  |  | NanoBRET Fold Response (0.1μM tracer): 0.80; NanoBRET Fold Response (1μM tracer): 0.75 |
| CN1CCN(C2=Nc3cc(Cl)ccc3N(CC(=O)NCCOCCOCCOCCOCCNC(=O)CCc3ccc4n3[B-](F)(F)[N+]3=C(c5ccc[nH]5)C=CC3=C4)c3ccccc32)CC1 [Clozapine-c-2-NB590] |  |  | NanoBRET Fold Response (AVPR1A, 0.1μM tracer): 0.99; NanoBRET Fold Response (AVPR1A, 1μM tracer): 0.96 |
| COc1ccccc1N1CCN(CCCCN2C(=O)c3ccc(CNC(=O)CCOCCNC(=O)c4ccc(CNC(=O)CCc5ccc6n5[B-](F)(F)[N+]5=C(c7ccc[nH]7)C=CC5=C6)cc4)cc3C2=O)CC1 [NAN-190-3-NB590] | 0.90 | 0.75 |  |
| Cc1nc2n(c(=O)c1CCN1CCC(c3noc4cc(F)ccc34)CC1)CCCC2OC(=O)NCCOCCOCCOCCOCCNC(=O)CCc1ccc2n1[B-](F)(F)[N+]1=C(c3ccc[nH]3)C=CC1=C2 (centres unmarked) [Risperidone-2-NB590] | 0.90 | 0.87 |  |
| O=C(CCOCCOCCOCCOCCNC(=O)CCc1ccc2n1[B-](F)(F)[N+]1=C(c3ccc[nH]3)C=CC1=C2)NCCCN1CCN(C2=Nc3ccccc3Oc3ccc(Cl)cc32)CC1 [Loxapine-a-2-NB590] | 1.16 | 0.90 |  |
| COc1ccccc1N1CCN(CCCCN2C(=O)c3ccc(CNC(=O)CCOCCOCCOCCOCCNC(=O)CCc4ccc5n4[B-](F)(F)[N+]4=C(c6ccc[nH]6)C=CC4=C5)cc3C2=O)CC1 [NAN-190-2-NB590] | 0.97 | 0.96 |  |
| CC(C)N(CC[C@H](c1ccccc1)c1cc(CCNC(=O)CCOCCOCCOCCOCCNC(=O)CCc2ccc3n2[B-](F)(F)[N+]2=C(c4ccc[nH]4)C=CC2=C3)ccc1O)C(C)C [Tolterodine-2-NB590] | 0.91 | 1.03 |  |
| N#CN=C(NCCCOc1cccc(CN2CCCCC2)c1)NCCNC(=O)CCOCCOCCOCCOCCNC(=O)CCc1ccc2n1[B-](F)(F)[N+]1=C(c3ccc[nH]3)C=CC1=C2 [Aminopotentidine-2-NB590] | 0.93 | 0.97 |  |
| CCOC(=O)c1cc(C#N)c(N2CCC(C(=O)NS(=O)(=O)Cc3ccccc3/C=C/C(=O)NCCNC(=O)CCc3ccc4n3[B-](F)(F)[N+]3=C(c5ccc[nH]5)C=CC3=C4)CC2)nc1C [AZD1283-1-NB590] |  |  | NanoBRET Fold Response (AVPR1A, 0.1μM): 1.17; NanoBRET Fold Response (AVPR1A, 1μM): 1.06 |
| CN(C)CCC=C1c2ccccc2CCc2ccc(C(=O)NCCNC(=O)CCOCCOCCOCCOCCNC(=O)CCc3ccc4n3[B-](F)(F)[N+]3=C(c5ccc[nH]5)C=CC3=C4)cc21 [Amitriptyline-b-2-NB590] |  |  | NanoBRET Fold Response (tracer at 0.1μM, listed as amitriptyline-b-2-NB590): 1.10; NanoBRET Fold Response (tracer at 1μM, listed as amitriptyline-b-2-NB590): 0.77 |
| CN(C)CCC=C1c2ccccc2CCc2ccc(C(=O)NCCNC(=O)CCOCCOCCOCCOCCNC(=O)CCc3ccc4n3[B-](F)(F)[N+]3=C(c5ccc[nH]5)C=CC3=C4)cc21 [Amitriptyline-a-2-NB590] |  |  | NanoBRET Fold Response (tracer at 0.1μM): 0.93; NanoBRET Fold Response (tracer at 1μM): 1.11 |
| O=C(CCc1ccc2n1[B-](F)(F)[N+]1=C(c3ccc[nH]3)C=CC1=C2)NCCOCCOCCNC(=O)OCCOCCN1CCN(C2=Nc3ccccc3Sc3ccccc32)CC1 [Quetiapine-a-2-NB590] | 1.02 | 1.00 |  |
| Cc1cc2c(s1)Nc1ccccc1N=C2N1CCN(CCCNC(=O)CCOCCOCCOCCOCCNC(=O)CCc2ccc3n2[B-](F)(F)[N+]2=C(c4ccc[nH]4)C=CC2=C3)CC1 [Olanzapine-a-2-NB590] | 1.11 | 1.16 |  |
| CN1CCN(C2=Nc3cc(Cl)ccc3Nc3ccc(CNC(=O)CCOCCOCCOCCOCCNC(=O)CCc4ccc5n4[B-](F)(F)[N+]4=C(c6ccc[nH]6)C=CC4=C5)cc32)CC1 [Clozapine-b-2-NB590] |  |  | NanoBRET Fold Response (AVPR1A, 0.1μM tracer): 1.04; NanoBRET Fold Response (AVPR1A, 1μM tracer): 0.98 |
| COc1ccc2c(n1)c(CCNC(C)=O)cn2CCNC(=O)CCc1ccc2n1[B-](F)(F)[N+]1=C(c3ccc[nH]3)C=CC1=C2 [Azamelatonin-1-NB590] |  |  | NanoBRET Fold Response (0.1μM tracer): 2.27; NanoBRET Fold Response (1μM tracer): 0.90 |
| CN(CCC=C1c2ccccc2CCc2ccccc21)C(=O)CCOCCOCCOCCOCCNC(=O)CCc1ccc2n1[B-](F)(F)[N+]1=C(c3ccc[nH]3)C=CC1=C2 [Amitriptyline-e-2-NB590] |  |  | NanoBRET Fold Response (tracer at 1μM): 0.98 |
| O=C(CCc1ccc2n1[B-](F)(F)[N+]1=C(c3ccc[nH]3)C=CC1=C2)NCc1ccc(C(=O)NCCOCCOCCNCC(O)COc2cccc3ccccc23)cc1 (centres unmarked) [Propranolol-3-NB590] |  |  | NanoBRET Fold Response (AVPR1A, 0.1μM): 1.06; NanoBRET Fold Response (AVPR1A, 1μM): 0.97 |
| O=C(CCOCCOCCOCCOCCNC(=O)CCc1ccc2n1[B-](F)(F)[N+]1=C(c3ccc[nH]3)C=CC1=C2)NCCCN1CCN(C2=Nc3cc(Cl)ccc3Nc3ccccc32)CC1 [Clozapine-a-2-NB590] |  |  | NanoBRET Fold Response (AVPR1A, 0.1μM tracer): 0.89; NanoBRET Fold Response (AVPR1A, 1μM tracer): 0.99 |
